# Assay results from patent publication US20250248979A1, “NOVEL GPX4 INHIBITORS AND USES THEREOF” (THE TRUSTEES OF COLUMBIA UNIVERSITY IN THE CITY OF NEW YORK, priority 2022, published 2025).
# Substitutions are numbered along the chain they refer to. Entries after “also recorded” stand apart in the source; their conditions may differ. Where two headings read alike, the source gives them in different places.
# Columns and labels:
# [1] = molecular target: panel of 44 targets (GPCRs, ion channels, enzymes, transporters, nuclear receptors) (Homo sapiens, UniProt P08913); details: Adrenergic a2A; RL [3H]-RX821002 5 nM; read-out: IC50 (M) Reference Compound (EC50 for agonist)
# panel of 44 targets (GPCRs, ion channels, enzymes, transporters, nuclear receptors) (Homo sapiens, UniProt P08913), sequence (P08913 whole entry): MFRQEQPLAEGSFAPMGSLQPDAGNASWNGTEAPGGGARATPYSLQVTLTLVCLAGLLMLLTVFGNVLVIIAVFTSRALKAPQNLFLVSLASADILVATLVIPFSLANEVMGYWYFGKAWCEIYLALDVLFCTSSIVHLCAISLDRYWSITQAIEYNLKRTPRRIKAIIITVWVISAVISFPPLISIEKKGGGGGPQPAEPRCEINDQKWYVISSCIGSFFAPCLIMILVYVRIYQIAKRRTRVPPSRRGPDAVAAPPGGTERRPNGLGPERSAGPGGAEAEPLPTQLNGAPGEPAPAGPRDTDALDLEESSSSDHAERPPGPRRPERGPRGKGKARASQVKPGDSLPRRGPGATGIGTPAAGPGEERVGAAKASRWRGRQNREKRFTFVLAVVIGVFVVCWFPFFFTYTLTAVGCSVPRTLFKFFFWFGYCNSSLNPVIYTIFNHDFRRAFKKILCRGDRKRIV
# GPX4 = molecular target: T1, GPX4 (Homo sapiens, UniProt P36969); assay: GPX4 activity assay in cell lysates (NADPH-coupled); format: biochemical; parameters: endogenous in cells; host or cells: A-673 cell lysate; details: for GPX4% inhibition at 200 (μM): mean ± s.d., n = 3
# T1 sequence (P36969 1-170 isoform P36969-2): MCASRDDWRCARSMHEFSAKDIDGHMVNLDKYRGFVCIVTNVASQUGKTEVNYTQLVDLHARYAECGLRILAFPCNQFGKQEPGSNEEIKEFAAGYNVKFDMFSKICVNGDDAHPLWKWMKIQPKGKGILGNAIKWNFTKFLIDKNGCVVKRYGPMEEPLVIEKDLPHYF
# In short: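 Native GPX4 in lysates of A-673 cells grown with 20 nM sodium selenite; lysate preincubated with compound 45 min at 37 °C in pH 8.0 buffer with 3 mM GSH, 0.5 mM NADPH and glutathione reductase. Reaction started with phosphatidylcholine hydroperoxide; NADPH consumption followed at 340 nm over 25 min; triplicates.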
# GPX4^U46C = molecular target: T2, GPX4^U46C (Homo sapiens, UniProt P36969, U73C); assay: Microscale thermophoresis (MST) binding; details: half maximal effective concentration, covalent mechanism
# T2 construct: made in house; host or cells: E. coli BL21-Gold (DE3)
# T2 sequence (P36969 1-170 isoform P36969-2 U46C): T1 sequence (P36969 1-170 isoform P36969-2) with U46C
# Description: The bacterial expression vector pET-15b-His-tagged-c-GPX4^U46C was prepared as previously described (Yang et al. 2016). The C-terminal His-tagged GPX4U46C protein was expressed in E. coli and purified according to a protocol modified from Scheerer et al. 2007. First, pET-15b-His-tagged-c-GPX4^U46C was transformed into XL10-Gold (Agilent #200314) E. coli ultracompetent cells for plasmid DNA production and isolated using QIAprep Spin Miniprep Kit (Qiagen). For protein expression, pET-15b-His-tagged-c-GPX4^U46C was then transformed into BL21-Gold (DE3) E. coli competent cells (Agilent #230132) and plated on LB agar with 100 μg/mL ampicillin. A starter culture was inoculated in 7 mL of LB medium with 100 μg/mL ampicillin using a single colony and allowed to grow in a 37° C. shaker (225 rpm) for 16 hours. 3 mL of the starter culture was added to 1 L of LB medium with 100 μg/mL ampicillin, which was then incubated in a 37° C. shaker (225 rpm) to an OD600 of 0.9. At that point, the incubation temperature was reduced to 15° C. and the culture was allowed to equilibrate for 1 hour. Expression of the recombinant enzyme was induced by addition of isopropyl β-D-1-thiogalactopyranoside (IPTG, 1 mM final concentration) overnight for 12-15 hours shaking at 225 rpm and 15° C. The next morning, cells were harvested by centrifugation at 4000 rpm and 4° C. for 20 minutes. The cell pellet was then frozen at −80° C. for at least 1 hour or until lysis. To lyse the cells, the cell pellet was resuspended with 25 mL of chilled lysis buffer (100 mM Tris pH 8.0, 300 mM NaCl, 20 mM imidazole, 3 mM TCEP, and 2.5 mini tablets of complete Protease Inhibitor Cocktail (Roche-Sigma #11836170001)) then lysed using an Emulsiflex C3 high-pressure homogenizer. To remove cell debris, the lysate was subjected to centrifugation at 10000 rpm and 4° C. for 20 minutes. The supernatant was centrifuged once more at the same conditions, then the clarified lysate was applied onto a 5-mL HisTrap HP column (Cytiva #17-5248-01), washed with 90% Buffer A (100 mM Tris pH 8.0, 300 mM NaCl, 5% glycerol, 3 mM TCEP) 10% Buffer B (Buffer A with 500 mM imidazole), then eluted with a continuous gradient (10-100% Buffer B). The protein was concentrated using Amicon Ultra-15 centrifugal filter units with a 10 kDa molecule weight cutoff (EMD Millipore #UFC901024) then further purified by FPLC on a size exclusion HiLoad Superdex 200 column (Cytiva) in crystallization buffer (20 mM Tris pH 8.0, 300 mM NaCl, 3 mM TCEP). The fractions containing 90-95% pure GPX4 protein, as evaluated by SDS-PAGE, were pooled and concentrated using the same Amicon centrifugal filter units as above to 5 mg/mL. Concentration was determined by Nanodrop. Protein was aliquoted into Eppendorf tubes, flash frozen using liquid nitrogen, and stored at −80° C. until use.
# MST experiments were conducted using a Monolith NT.115 (Nanotemper Technologies) according to manufacturer instructions. To label the protein, 90 μL of 200 nM GPX4^U46C was combined with 90 μL of 100 nM RED-tris-NTA dye diluted in PBS buffer with 0.05% Tween 20 (PBST buffer). The mixture was incubated for 30 minutes at room temperature, followed by centrifugation for 10 minutes at 4° C. and 15,000×g. To assess binding of the compounds, a 16-point 2-fold dilution series in PBST buffer was prepared and mixed in a 1:1 ratio with the labeled protein solution for a final volume of 20 μL. The reaction mixture was loaded into standard treated capillary tubes and analyzed with the Monolith NT.115 at 40% LED power and 40% MST power with a laser-on time of 5 seconds. The data were analyzed in MO.Affinity Analysis v2.3 software.
# in vitro [2] = format: in vitro ADME, human; details: human, microsomes
# Description: (§1) […]. The incubation timepoints measured were 0, 5, 10, 15, 30, and 45 minutes. All samples were prepared in duplicate and analyzed by LC-MS/MS.
# [3] = not given; remark: listed apart in the source
# in vitro [4] = format: in vitro ADME, mouse; details: mouse, microsomes
# Description: as §1
# [5] = system: lipid peroxidation in HT-1080 cells; assay: C11-BODIPY lipid peroxidation flow cytometry assay; format: cell-based, human; details: HT-1080 cells, with and without fer-1
# HepG2 cells = assay: Cellular dose response assay, HepG2; format: cell-based, human
# From the text: HT-1080 (human [Homo sapiens] […] fibrosarcoma), A-673 (human [Homo sapiens] […] Ewing's sarcoma), and SK-HEP-1 (human [Homo sapiens] […] hepatic adenocarcinoma), cells were obtained from ATCC. Huh7 (human [Homo sapiens] […] hepatocellular carcinoma), HLF (human [Homo sapiens] […] hepatocellular carcinoma), HepG2 (human [Homo sapiens] […] hepatocellular carcinoma), cells were obtained from the Cancer Cell Bank at Columbia University Irving Medical Center. HT-1080, A-673, Huh-7, and HLF cells were grown in Dulbecco's Modified Eagle Medium (DMEM) supplemented with 10% heat inactivated fetal bovine serum (HI-FBS), 1% non-essential amino acids, and 1% penicillin streptomycin. HepG2 and SK-HEP-1 cells were grown in Eagle's Minimum Essential Medium (EMEM) supplemented with 10% HI-FBS, and 1% penicillin-streptomycin. All cells were cultured at 37° C. and 5% CO2.
# HT-1080, HepG2, Huh7, HLF, and SK-HEP-1 cells were seeded into opaque white 384-well plates at 1500 cells per well then incubated at 37° C. with 5% CO2 overnight. The next day, compounds of interest were dissolved in DMSO and 12-point 2-fold dilution series were prepared with and without Fer-1. Cells were treated in triplicate (final DMSO concentration of 0.4% in all wells, including DMSO-only control wells) and incubated for a further 48 hours at 37° C. and 5% CO2. Cell viability was evaluated using CellTiter-Glo (Promega G7573) and luminescence was recorded on a Victor 5 plate reader. Data were analyzed in GraphPad Prism 9 and error bars represent standard deviation values for three technical replicates in a representative experiment.
# HT-1080 cells = assay: Cellular dose response assay, HT-1080 with and without Fer-1; format: cell-based, human; details: for ferroptosis induction / potency in HT-1080 cells, result in words: RSL3 as control; for Selectivity: ferroptosis selectivity, HT1080 + Fer-1 vs HT1080
# In short: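 CellTiter-Glo luminescence viability readout after 48 h compound exposure at 37 °C. Plated 1500 cells/well overnight beforehand; 12-point 2-fold dilution series, triplicate wells, 0.4% DMSO throughout. […]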
# [6] = Kinetic aqueous solubility; details: aqueous solubility; Table 9
# [7] = molecular target: panel of 44 targets (GPCRs, ion channels, enzymes, transporters, nuclear receptors) (Homo sapiens, UniProt P08172); details: Muscarinic M2; RL [3H]-AF-DX384 5 nM; read-out: IC50 (M) Reference Compound (EC50 for agonist)
# panel of 44 targets (GPCRs, ion channels, enzymes, transporters, nuclear receptors) (Homo sapiens, UniProt P08172), sequence (P08172 whole entry): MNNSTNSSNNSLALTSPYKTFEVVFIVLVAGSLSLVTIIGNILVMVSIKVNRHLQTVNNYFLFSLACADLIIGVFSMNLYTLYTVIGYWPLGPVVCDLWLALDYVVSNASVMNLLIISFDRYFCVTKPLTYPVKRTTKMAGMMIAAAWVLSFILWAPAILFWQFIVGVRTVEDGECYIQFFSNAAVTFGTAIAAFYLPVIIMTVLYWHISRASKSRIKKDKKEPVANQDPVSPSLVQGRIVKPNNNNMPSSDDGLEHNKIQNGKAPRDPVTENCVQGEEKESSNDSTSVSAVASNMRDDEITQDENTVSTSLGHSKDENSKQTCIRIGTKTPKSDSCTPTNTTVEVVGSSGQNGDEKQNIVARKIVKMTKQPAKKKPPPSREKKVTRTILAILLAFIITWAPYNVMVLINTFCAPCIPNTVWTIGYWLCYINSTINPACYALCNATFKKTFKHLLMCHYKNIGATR
# [8] = molecular target: panel of 44 targets (GPCRs, ion channels, enzymes, transporters, nuclear receptors)
# [9] = molecular target: panel of 44 targets (GPCRs, ion channels, enzymes, transporters, nuclear receptors) (Homo sapiens, UniProt P28222); details: IC50 (M) Reference Compound (EC50 for agonist)
# panel of 44 targets (GPCRs, ion channels, enzymes, transporters, nuclear receptors) (Homo sapiens, UniProt P28222), sequence (P28222 whole entry, looked up): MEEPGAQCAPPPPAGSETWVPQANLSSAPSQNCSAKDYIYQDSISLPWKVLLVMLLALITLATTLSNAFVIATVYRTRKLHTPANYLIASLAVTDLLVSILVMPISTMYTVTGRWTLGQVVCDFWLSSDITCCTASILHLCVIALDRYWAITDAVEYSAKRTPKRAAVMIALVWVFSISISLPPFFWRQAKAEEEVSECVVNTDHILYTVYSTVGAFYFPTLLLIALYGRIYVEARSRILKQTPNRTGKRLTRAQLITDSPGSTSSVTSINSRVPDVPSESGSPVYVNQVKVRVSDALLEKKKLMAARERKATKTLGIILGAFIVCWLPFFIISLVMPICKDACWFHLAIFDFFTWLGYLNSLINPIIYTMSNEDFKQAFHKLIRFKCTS
# [10] = molecular target: panel of 44 targets (GPCRs, ion channels, enzymes, transporters, nuclear receptors) (Homo sapiens, UniProt P25101); details: Endothelin ETA (Antagonist); read-out: IC50 (M) Reference Compound (EC50 for agonist)
# panel of 44 targets (GPCRs, ion channels, enzymes, transporters, nuclear receptors) (Homo sapiens, UniProt P25101), sequence (P25101 21-427): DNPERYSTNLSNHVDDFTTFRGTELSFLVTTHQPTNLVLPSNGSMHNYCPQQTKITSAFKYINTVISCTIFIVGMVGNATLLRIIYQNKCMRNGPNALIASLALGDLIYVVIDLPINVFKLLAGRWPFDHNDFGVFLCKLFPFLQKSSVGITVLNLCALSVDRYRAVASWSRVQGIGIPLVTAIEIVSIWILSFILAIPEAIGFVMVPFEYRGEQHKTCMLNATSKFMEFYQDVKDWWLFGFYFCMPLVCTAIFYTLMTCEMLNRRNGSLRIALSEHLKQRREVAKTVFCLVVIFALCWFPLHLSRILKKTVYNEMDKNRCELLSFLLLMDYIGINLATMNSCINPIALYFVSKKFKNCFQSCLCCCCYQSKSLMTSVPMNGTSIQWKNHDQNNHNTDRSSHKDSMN
# [11] = HT1080 + Fer-1, read-out: IC50 (uM) HT1080 + Fer-1
# [12] = HT1080, without Fer-1, read-out: IC50 (uM) HT1080
# [13] = read-out: IC50 (M) Reference Compound (EC50 for agonist)
compound,measurement,setting,value
COC1(C2=NCCN2)COc2ccccc2O1 (stereo not drawn) [RX821002],IC50,[1],8.51e-09 M
COc1cccc2[nH]c(C(=O)NC(C)(C)COC(=O)CCl)cc12 [QW-144],GPX4% inhibition at 200 (μM),GPX4; generation 1,50.0 ± 32.5%
same,EC50,GPX4^U46C,836 nM
CC(C)(COC(=O)CCl)NC(=O)c1cc2cc(Cl)ccc2[nH]1 [QW-164],GPX4% inhibition at 200 (μM),GPX4; generation 1,53.3 ± 37.8%
same,EC50,GPX4^U46C,2100 nM
Cn1nc(C(=O)NC(C)(C)CNC(=O)CCl)c2ccc(Br)cc21 [QW-624],Microsome Stability t1/2 (min) human,in vitro [2],8.8 min
same,Plasma Stability t1/2 (min) human,,142 min
same,GPX4% inhibition at 2.5 μM,GPX4; generation 2,−9.6 ± 4.4%
same,Plasma Stability t1/2 (min) mouse,[3],685 min
same,Microsome Stability t1/2 (min) mouse,in vitro [4],1.2 min
same,"lipid peroxidation (C11-BODIPY), result in words",[5],still active in lipid peroxidation assay
Cn1c(C(=O)n2ccnc2)cc2ccccc21 [QW-057],fold increase in GPX4 inhibitory activity in comparison to LOC1886,GPX4; 200 uM,~2 fold
same,GPX4% inhibition at 200 (μM),GPX4,59.8 ± 12.5%
same,IC50,"HepG2 cells; compounds alone, read-out: IC50 (μM) HEPG2^a",97.7 µM
same,IC50,"HepG2 cells; compounds and fer-1 1.0 μM, read-out: IC50 (μM) HEPG2^b",82.6 µM
same,"ferroptosis induction / potency in HT-1080 cells, result in words",HT-1080 cells,no fer-1 rescue was observed
same,IC50,"HT-1080 cells; compounds alone, read-out: IC50 (μM) HT1080^a",64 µM
same,IC50,"HT-1080 cells; compounds and fer-1 1.0 μM, read-out: IC50 (μM) HT1080^b",64.2 µM
same,"lipid peroxidation (C11-BODIPY), result in words",[5],did not induce lipid peroxidation
Cn1nc(C(=O)NC(C)(C)COC(=O)CCl)c2ccc(-c3ccc(N4CCOCC4)c(Cl)c3)cc21 [QW-562],Plasma Stability t1/2 (min) mouse,"Plasma stability, mouse",5.3 min
same,"GPX4 inhibitory activity, result in words",GPX4,slightly higher potencies than their parent compound
same,GPX4% inhibition at 2.5 μM,GPX4,77.6 ± 12.0%
same,GPX4% inhibition at 5 μM,GPX4; 5 μM,95.8 ± 2.0%
same,IC50,HT-1080 cells; [11],7.2 µM
same,IC50,HT-1080 cells; [12],1.1 µM
same,Selectivity,HT-1080 cells,6.5
same,Plasma Stability t1/2 (min) human,"Plasma stability, human",7.4 min
same,Solubility,[6],7.8 µM
CCCN(CCC)CC1CCCCN1CCNC(=O)N1c2ccccc2C(=O)Nc2cccnc21 (stereo not drawn) [AF-DX384],IC50,[7],1.93e-08 M
Clc1ccc(C2CC3CCC2N3)cn1 (stereo not drawn) [Epibatidine],EC50,[8]; [13],2.5e-09 M
Cc1ccc2[nH]c(C(=O)NC(C)(C)COC(=O)CCl)cc2c1 [QW-155],GPX4% inhibition at 200 (μM),GPX4; generation 1,50.9 ± 3.6%
same,EC50,GPX4^U46C,473000 nM
COc1ccc(NC(=O)c2ccc(-c3ccncc3)c(C)c2)cc1N1CCN(C)CC1 [GR125743],IC50,[9],1.49e-08 M
Cc1cc2c(cc1CC(=O)c1sccc1S(=O)(=O)Nc1onc(C)c1Cl)OCO2 [Sitaxentin],IC50,[10],8.07e-08 M
CCOc1ccc(-c2ccc3c(C(=O)NC(C)(C)COC(=O)CCl)nn(C)c3c2)cc1Cl [QW-655],Plasma Stability t1/2 (min) mouse,"Plasma stability, mouse",2.6 min
same,"GPX4 inhibitory activity, result in words",GPX4,greatest potency; also recorded: slightly higher potencies than their parent compound
same,GPX4% inhibition at 2.5 μM,GPX4,106.9 ± 5.6%
same,IC50,HT-1080 cells; [11],15.6 µM
same,IC50,HT-1080 cells; [12],0.7 µM
same,"ferroptosis induction / potency in HT-1080 cells, result in words",HT-1080 cells,sub-micromolar GI50 value; also recorded: sub-molar range cellular activities and decreased ferroptosis selectivity
same,Selectivity,HT-1080 cells,22.3
same,Plasma Stability t1/2 (min) human,"Plasma stability, human",16.8 min
CNC1(C)C2CCC(C2)C1(C)C (stereo not drawn) [Mecamylamine],IC50,[8]; read-out: IC50 (M) Reference Compound,8.31e-07 M
same,IC50,[8]; [13],6.8e-07 M
C[C@]12N[C@H](Cc3ccccc31)c1ccccc12 [MK-801],IC50,[8]; [13],2.75e-08 M
